Experimental data as given in US12146004B2, “Polymyxin compounds and uses thereof” (priority 2014, dated 2024).
≈ marks a conversion by molar mass, not a printed value. Like-named read-outs stand apart in the source and are kept apart here.

Experiments:
Type in all cases: cell-based
Klebsiella pneumoniae = test system: Klebsiella pneumoniae
Protocol: (§1) To evaluate the potency and spectrum of the compounds, susceptibility testing was performed against up to nine strains of each of the Gram negative pathogens, Escherichia coli, Pseudomonas aeruginosa, Klebsiella pneumoniae and Acinetobacter baumannii.
(§2) The values in Table 2 are MIC (μg/mL) against strains of E. coli, K. pneumoniae, P. aeruginosa and A. baumanii, including strains which show elevated MICs to Polymyxin.
(§3) The values in Table 2A are MIC (μg/mL).
(§4) The in vitro activity of compounds 26 and C7 (FADDI-02) against resistant bacterial strains was compared. The resistant strains included including Escherichia coli, Pseudomonas aeruginosa, Klebsiella pneumoniae and Acinetobacter baumannii strains. The data is provided in Table 2C, where the strains are identified. The values in Table 2 are MIC (μg/mL).

Pseudomonas aeruginosa = test system: Pseudomonas aeruginosa
Protocol: as §1, §2, §3, §4

Escherichia coli = test system: Escherichia coli
Protocol: as §1, §2, §3, §4

Acinetobacter baumannii = test system: Acinetobacter baumannii
Protocol: as §1, §2, §3, §4

SMILES | MIC K. pneumoniae 062 (Klebsiella pneumoniae) | MIC K. pneumoniae 063 (Klebsiella pneumoniae) | MIC K. pneumoniae 064 (Klebsiella pneumoniae) | MIC K. pneumoniae 065 (Klebsiella pneumoniae) | MIC K. pneumoniae 066 (Klebsiella pneumoniae) | MIC K. pneumoniae 067 (Klebsiella pneumoniae) | MIC K. pneumoniae ATCC 4352 (Klebsiella pneumoniae) | MIC P. aeruginosa 068 (Pseudomonas aeruginosa) | MIC P. aeruginosa 070 (Pseudomonas aeruginosa) | MIC P. aeruginosa ATCC 27853 (Pseudomonas aeruginosa) | MIC E. coli 058 (Escherichia coli) | MIC E. coli 059 (Escherichia coli) | MIC E. coli 060 (Escherichia coli) | MIC E. coli 061 (Escherichia coli) | MIC E. coli ATCC 25922 (Escherichia coli) | MIC A. baumanii 053 (Acinetobacter baumannii) | MIC A. baumanii 056 (Acinetobacter baumannii) | MIC A. baumanii ATCC BAA-747 (Acinetobacter baumannii) | further results
CCCCCCCCC1CNCC1C(=O)N[C@H](C(=O)N[C@@H](CCN)C(=O)N[C@H]1CCNC(=O)[C@H]([C@@H](C)O)NC(=O)[C@H](CCN)NC(=O)[C@H](CCN)NC(=O)[C@H](CC(C)C)NC(=O)[C@@H](Cc2ccccc2-c2ccccc2)NC(=O)[C@H](CCN)NC1=O)C(C)O (single isomer, unassigned; isomer 1) [Example 9, trans-4-octylpyrrolidine-3-carbonyl polymyxin [D-(2-phenyl)Phe]-6] nonapeptide. Isomer 1] | 64 µg/mL (≈ 51.3 µM) | >64 µg/mL | 64 µg/mL (≈ 51.3 µM) | 8 µg/mL (≈ 6.41 µM) | 32 µg/mL (≈ 25.6 µM) | >64 µg/mL | 0.5 µg/mL (≈ 0.4 µM) | 2 µg/mL (≈ 1.6 µM) | 2 µg/mL (≈ 1.6 µM) | 1 µg/mL (≈ 0.801 µM) | 2 µg/mL (≈ 1.6 µM) | 2 µg/mL (≈ 1.6 µM) | 4 µg/mL (≈ 3.2 µM) | 8 µg/mL (≈ 6.41 µM) | 1 µg/mL (≈ 0.801 µM) | 64 µg/mL (≈ 51.3 µM) | 32 µg/mL (≈ 25.6 µM) | 1 µg/mL (≈ 0.801 µM) | –
CC(C)CC(CN)C(=O)N[C@H](C(=O)N[C@@H](CN)C(=O)N[C@H]1CCNC(=O)[C@H]([C@@H](C)O)NC(=O)[C@H](CCN)NC(=O)[C@H](CCN)NC(=O)[C@H](CC(C)C)NC(=O)[C@@H](Cc2ccc(-c3ccccc3)cc2)NC(=O)[C@H](CCN)NC1=O)C(C)O (single isomer, unassigned; isomer 1) [Example 15, 2-aminomethyl-4-mehtly pentanoyl polymyxin L-Thr-L-Dap-polymyxin [D-(4-phenyl Phe)]-6]heptapeptide. Isomer 1] | >64 µg/mL | >64 µg/mL | >64 µg/mL | 64 µg/mL (≈ 55.5 µM) | 64 µg/mL (≈ 55.5 µM) | >64 µg/mL | 0.5 µg/mL (≈ 0.434 µM) | 16 µg/mL (≈ 13.9 µM) | 32 µg/mL (≈ 27.8 µM) | 1 µg/mL (≈ 0.868 µM) | 32 µg/mL (≈ 27.8 µM) | 16 µg/mL (≈ 13.9 µM) | 32 µg/mL (≈ 27.8 µM) | 64 µg/mL (≈ 55.5 µM) | 1 µg/mL (≈ 0.868 µM) | >64 µg/mL | >64 µg/mL | 8 µg/mL (≈ 6.94 µM) | –
CC(C)C[C@@H]1NC(=O)[C@@H](CC2CCCCC2)NC(=O)[C@H](CCN)NC(=O)[C@@H](NC(=O)[C@H](CN)NC(=O)[C@@H](NC(=O)CC(CN)C2CCCCC2)C(C)O)CCNC(=O)[C@H]([C@@H](C)O)NC(=O)[C@H](CCN)NC(=O)[C@H](CCN)NC1=O (single isomer, unassigned; isomer 1) [Example 42, 4-amino-3-cyclohexylbutanoyl L-Thr-L-Dap-polymyxin [D-cyclohexylalanine]-6 heptapeptide. Isomer 1] | – | – | – | – | – | – | – | – | – | – | – | – | – | – | – | – | – | – | MIC K. pneumoniae 063 (Klebsiella pneumoniae; strain 063): 32 µg/mL (≈ 28.5 µM); MIC K. pneumoniae 065 (Klebsiella pneumoniae; strain 065): 2 µg/mL (≈ 1.78 µM); MIC K. pneumoniae ATCC 13882 (Klebsiella pneumoniae; strain ATCC 13882): 0.25 µg/mL (≈ 0.223 µM); MIC P. aeruginosa 068 (Pseudomonas aeruginosa; strain 068): 2 µg/mL (≈ 1.78 µM); MIC P. aeruginosa 070 (Pseudomonas aeruginosa; strain 070): 4 µg/mL (≈ 3.56 µM); MIC P. aeruginosa ATCC 27853 (Pseudomonas aeruginosa; strain ATCC 27853): 0.5 µg/mL (≈ 0.445 µM); MIC P. aeruginosa CCUG 59347 (Pseudomonas aeruginosa; strain CCUG 59347): 0.5 µg/mL (≈ 0.445 µM); MIC E. coli 058 (Escherichia coli; strain 058): 4 µg/mL (≈ 3.56 µM); MIC E. coli 061 (Escherichia coli; strain 061): 8 µg/mL (≈ 7.13 µM); MIC E. coli ATCC 25922 (Escherichia coli; strain ATCC 25922): 0.5 µg/mL (≈ 0.445 µM); MIC E. coli NCTC 9001 (Escherichia coli; strain NCTC 9001): 0.06 µg/mL (≈ 0.0535 µM); MIC A. baumanii 053 (Acinetobacter baumannii; strain 053): >64 µg/mL; MIC A. baumanii 056 (Acinetobacter baumannii; strain 056): 32 µg/mL (≈ 28.5 µM); MIC A. baumanii ATCC BAA-747 (Acinetobacter baumannii; strain ATCC BAA-747): 0.125 µg/mL (≈ 0.111 µM); MIC A. baumanii NCTC 13424 (Acinetobacter baumannii; strain NCTC 13424): 0.125 µg/mL (≈ 0.111 µM)

Continued, in another order:

MIC K. pneumoniae 062 (Klebsiella pneumoniae) | MIC K. pneumoniae 063 (Klebsiella pneumoniae) | MIC K. pneumoniae 064 (Klebsiella pneumoniae) | MIC K. pneumoniae 065 (Klebsiella pneumoniae) | MIC K. pneumoniae 066 (Klebsiella pneumoniae) | MIC K. pneumoniae 067 (Klebsiella pneumoniae) | MIC K. pneumoniae ATCC 4352 (Klebsiella pneumoniae) | MIC P. aeruginosa 068 (Pseudomonas aeruginosa) | MIC P. aeruginosa 070 (Pseudomonas aeruginosa) | MIC P. aeruginosa ATCC 27853 (Pseudomonas aeruginosa) | MIC E. coli 058 (Escherichia coli) | MIC E. coli 059 (Escherichia coli) | MIC E. coli 060 (Escherichia coli) | MIC E. coli 061 (Escherichia coli) | MIC E. coli ATCC 25922 (Escherichia coli) | MIC A. baumanii 053 (Acinetobacter baumannii) | MIC A. baumanii 056 (Acinetobacter baumannii) | MIC A. baumanii ATCC BAA-747 (Acinetobacter baumannii) | SMILES | further results
>64 µg/mL | >64 µg/mL | >64 µg/mL | 64 µg/mL (≈ 53.5 µM) | >64 µg/mL | >64 µg/mL | 1 µg/mL (≈ 0.837 µM) | 8 µg/mL (≈ 6.69 µM) | 16 µg/mL (≈ 13.4 µM) | 1 µg/mL (≈ 0.837 µM) | 16 µg/mL (≈ 13.4 µM) | 32 µg/mL (≈ 26.8 µM) | 16 µg/mL (≈ 13.4 µM) | 64 µg/mL (≈ 53.5 µM) | 1 µg/mL (≈ 0.837 µM) | >64 µg/mL | 32 µg/mL (≈ 26.8 µM) | 2 µg/mL (≈ 1.67 µM) | CC(C)CC1CNCC(C(=O)N[C@H](C(=O)N[C@@H](CN)C(=O)N[C@H]2CCNC(=O)[C@H]([C@@H](C)O)NC(=O)[C@H](CCN)NC(=O)[C@H](CCN)NC(=O)[C@H](CC(C)C)NC(=O)[C@@H](Cc3ccc(Br)cc3)NC(=O)[C@H](CCN)NC2=O)C(C)O)C1 (single isomer, unassigned; isomer 1) [Example 11, (trans-5-(isobutyl-piperidine)-3-carbonyl L-Thr-L-Dap-polymyxin [D-(4-bromo Phe)]-6] hept apeptide Isomer 1] | –
>64 µg/mL | >64 µg/mL | >64 µg/mL | >64 µg/mL | >64 µg/mL | >64 µg/mL | 0.5 µg/mL (≈ 0.433 µM) | 32 µg/mL (≈ 27.7 µM) | 64 µg/mL (≈ 55.4 µM) | 0.5 µg/mL (≈ 0.433 µM) | 32 µg/mL (≈ 27.7 µM) | 32 µg/mL (≈ 27.7 µM) | 32 µg/mL (≈ 27.7 µM) | >64 µg/mL | 1 µg/mL (≈ 0.866 µM) | >64 µg/mL | >64 µg/mL | >8 µg/mL | CC(C)CC(CN)C(=O)N[C@H](C(=O)N[C@@H](CN)C(=O)N[C@H]1CCNC(=O)[C@H]([C@@H](C)O)NC(=O)[C@H](CCN)NC(=O)[C@H](CCN)NC(=O)[C@H](CC(C)C)NC(=O)[C@@H](Cc2ccc(Br)cc2)NC(=O)[C@H](CCN)NC1=O)C(C)O (single isomer, unassigned; isomer 1) [Example 13, 2-aminomethyl-4-methyl pentanoyl polymyxin L-Thr-L-Dap-polymyxin [D-(4-bromo Phe)]-6]heptapeptide. Isomer 1] | –
4 µg/mL (≈ 3.26 µM) | 16 µg/mL (≈ 13 µM) | 8 µg/mL (≈ 6.52 µM) | 4 µg/mL (≈ 3.26 µM) | – | 32 µg/mL (≈ 26.1 µM) | 2 µg/mL (≈ 1.63 µM) | 4 µg/mL (≈ 3.26 µM) | 4 µg/mL (≈ 3.26 µM) | 2 µg/mL (≈ 1.63 µM) | 2 µg/mL (≈ 1.63 µM) | 2 µg/mL (≈ 1.63 µM) | 2 µg/mL (≈ 1.63 µM) | 2 µg/mL (≈ 1.63 µM) | 2 µg/mL (≈ 1.63 µM) | 2 µg/mL (≈ 1.63 µM) | 2 µg/mL (≈ 1.63 µM) | 2 µg/mL (≈ 1.63 µM) | CCCCCC/C=C/c1ccc(C[C@H]2NC(=O)[C@H](CCN)NC(=O)[C@@H](NC(=O)[C@H](CN)NC(=O)[C@@H](NC(=O)C3CNCC(CC(C)C)C3)C(C)O)CCNC(=O)[C@H]([C@@H](C)O)NC(=O)[C@H](CCN)NC(=O)[C@H](CCN)NC(=O)[C@H](CC(C)C)NC2=O)cc1 (single isomer, unassigned; isomer 1) [Example 17, (trans-5-(isobutyl-piperidine)-3-carbonyl L-Thr-L-Dap-polymyxin [D-(4-(E)-oct-1-enyl) Phe]-6]heptapeptide Isomer 1] | –
